The results in this text go back to patent US6512007B1, “Use of galiella lactone” (Bayer Aktiengesellschaft, priority 2000, dated 2003).

The structures appear in SMILES notation.

This assay relates to Stat3. Description: IL-6-induced phosphorylation of Stat3 (tyrosine-705, serine-727) in HepG2 cells, immunoprecipitation/Western blot. As to conditions: HepG2, IL-6 50 ng/ml; all concentrations tested, up to 16 μg/ml, equivalent to 165 μM. It is filed as cell-based, human. The source says:
A crucial step in IL-6-dependent intracellular signal transduction is the phosphorylation of tyrosine-705 in Stat3 and tyrosine-701 in Stat1. […] However, inhibitors which inhibit the Stat3 and Stat1 phosphorylation also have crucial effects on other signal cascades, and therefore pharmaceutically usable inhibitors of IL-6-dependent gene expression should, in the concentration range in which they display their pharmacological effect, affect the Stat3 or Stat1 phosphorylation only slightly or not at all.
Seed out HepG2 cells in Petri dishes (diameter: 10 cm) (OptiMEM medium with 10% fetal calf serum and penicillin/streptomycin (100 iu) cell density: 5×10^5 cell/ml). Incubate in a moist atmosphere with 5% CO2 at 37° C. for 24 h. Replace medium by fresh OptiMEM medium with 0.5% fetal calf serum and penicillin/streptomycin (100 iu) and incubate for a further 48 h. Replace medium by fresh OptiMEM medium with 0.5% fetal calf serum and penicillin/streptomycin (100 iu), add test substances in various concentrations, and incubate for 60 min. 5 μl of the substances dissolved in ethanol, or only ethanol (controls), were added per mixture (10 ml). Induce cells by adding IL-6 (final concentrations 50 ng/ml).
After 20 min. remove medium and wash cell lawn twice wtih 1.5 ml of ice-cold PBS (137 mM NaCl, 2.7 mM KCl, 8.1 mM Na2HPO4×2H2O, 1.5 mM KH2PO4) each time. […]

Regarding `C[C@H]1C=C2C(=O)O[C@H]3CC[C@@H](C1)[C@@]23O` [galiella lactone], the “effect on the phosphorylation of Stat3” value is given as “no effect”.
